Several values for one entry are separate records, joined by “and”; a condition that tells them apart may be missing. Equal values may be shown once. Read-outs that look alike come from different tables or passages of the source.
How the values were obtained:
[1] = biological target: recombinant human NF-kappaB-inducing Kinase (NIK/MAP3K14) (Homo sapiens, UniProt Q99558); test: Inhibition of auto-phosphorylation of recombinant human NIK/MAP3K14 activity (AlphaScreen); assay type: biochemical; details: 25 microM ATP, averaged over all measurements on all batches
Chain of recombinant human NF-kappaB-inducing Kinase (NIK/MAP3K14) (Q99558 whole entry): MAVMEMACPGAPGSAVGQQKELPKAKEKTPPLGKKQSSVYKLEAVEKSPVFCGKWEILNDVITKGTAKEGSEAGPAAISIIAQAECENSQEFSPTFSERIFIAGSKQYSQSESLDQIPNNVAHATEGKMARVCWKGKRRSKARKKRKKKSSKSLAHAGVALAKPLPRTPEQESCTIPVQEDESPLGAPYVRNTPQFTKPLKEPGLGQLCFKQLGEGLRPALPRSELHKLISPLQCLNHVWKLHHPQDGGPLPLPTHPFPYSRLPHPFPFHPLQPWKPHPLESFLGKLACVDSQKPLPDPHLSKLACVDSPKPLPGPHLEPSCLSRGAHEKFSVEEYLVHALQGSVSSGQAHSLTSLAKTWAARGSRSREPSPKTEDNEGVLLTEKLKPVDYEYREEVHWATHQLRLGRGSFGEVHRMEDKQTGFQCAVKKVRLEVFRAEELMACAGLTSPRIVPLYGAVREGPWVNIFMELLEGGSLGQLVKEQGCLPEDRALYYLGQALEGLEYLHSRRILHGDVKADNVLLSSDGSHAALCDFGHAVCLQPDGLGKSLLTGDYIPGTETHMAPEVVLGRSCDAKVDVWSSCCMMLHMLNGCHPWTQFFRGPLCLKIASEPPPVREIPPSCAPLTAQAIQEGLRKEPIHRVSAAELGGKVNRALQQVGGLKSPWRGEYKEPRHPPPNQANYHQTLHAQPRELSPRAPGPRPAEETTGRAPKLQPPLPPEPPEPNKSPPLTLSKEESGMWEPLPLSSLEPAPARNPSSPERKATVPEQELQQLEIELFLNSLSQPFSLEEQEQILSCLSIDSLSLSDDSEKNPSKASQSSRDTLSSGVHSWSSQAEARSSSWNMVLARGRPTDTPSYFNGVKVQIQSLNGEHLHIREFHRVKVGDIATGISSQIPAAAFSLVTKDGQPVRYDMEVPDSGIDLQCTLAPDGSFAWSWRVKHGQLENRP
Experimental: Pharmacological Part Biological assay A Inhibition of auto-phosphorylation of recombinant human NF-kappaB-inducing Kinase (NIK/MAP3K14) Activity (AlphaScreen®)
NIK/MAP3K14 auto-phosphorylation activity was measured using the AlphaScreen® (αscreen) format (Perkin Elmer). All compounds tested were dissolved in dimethyl sulfoxide (DMSO) and further dilutions were made in assay buffer. Final DMSO concentration was 1% (v/v) in assays. Assay buffer was 50 mM Tris pH 7.5 containing 1 mM EGTA (ethylene glycol tetraacetic acid), 1 mM DTT (dithiothreitol), 0.1 mM Na3VO4, 5 mM MgCl2, 0.01% Tween® 20. Assays were carried out in 384 well Alphaplates (Perkin Elmer). […] Incubations were initiated by addition of GST-tagged NIK/MAP3K14 enzyme, carried out for 1 h at 25° C. and terminated by addition of stop buffer containing anti-phospho-IKK Ser176/180 antibody. Protein A Acceptor and Glutathione-Donor beads were added before reading using an EnVision® Multilabel Plate Reader (Perkin Elmer). Signal obtained in the wells containing blank samples was subtracted from all other wells and IC50's were determined by fitting a sigmoidal curve to % inhibition of control versus Log10 compound concentration.

[2] = tested on: JJN-3 (NIK translocated) multiple myeloma cells; test: Antiproliferative activity on JJN-3 multiple myeloma cells (CellTiter-Glo); assay type: cell-based, human; details: JJN-3 (NIK translocated) cells, 96 hr treatment, averaged values, read-out: JJN-3 Proliferation inhibition (IC50 (nM))
Experimental: (§1) Determination of Antiproliferative Activity on JJN-3 (NIK Translocated) and KMS12-BM (NIK WT) Multiple Myeloma Cells
(§2) All compounds tested were dissolved in DMSO and further dilutions were made in culture medium. Final DMSO concentration was 0.3% (v/v) in cell proliferation assays. Viability was assessed using CellTiter-Glo cell viability assay kit (Promega). […] Cells were routinely kept as suspension cells at 37° C. in a humidified 5% CO2 atmosphere. Cells were passaged at a seeding density of 0.2×10^6/ml twice a week. Cells were seeded in black tissue culture treated 96-well plates (Perkin Elmer). Densities used for plating ranged from 15000 (JJN3) to 20000 (KMS12BM) cells per well in a total volume of 135 μl medium. Drugs and/or solvents were added (15 μl) to a final volume of 150 μl. Following 96 hr of treatment, plates were removed from the incubator and allowed to equilibrate to room temperature for approx 10 min. 75 μl CellTiter-Glo reagent was added to each well that was then covered (Perkin Elmer Topseal) and shaken on plate shaker for 10 min. Luminescence was measured on a HTS Topcount (Perkin Elmer). […] For initial screening purposes, compounds were tested using a 9 point dilution curve (serial 1:3 dilutions). For each experiment, controls (containing no drug) and a blank incubation (containing cells read at the time of compound addition) were run in parallel. The blank value was subtracted from all control and sample values. For each sample, the mean value for cell growth (in relative light units) was expressed as a percentage of the mean value for cell growth of the control.

[3] = tested on: KMS12-BM (NIK WT) multiple myeloma cells; test: Antiproliferative activity on KMS12-BM multiple myeloma cells (CellTiter-Glo); assay type: cell-based, human; details: 96 hr treatment, averaged values, read-out: KMS-12 Proliferation inhibition (IC50 (nM))
Experimental: as §1, §2

| Structure (SMILES) | IC50 [1] [nM] | IC50 [2] [nM] | IC50 ([3]; Homo sapiens, KMS-12-BM, 96 h) [nM] | melting point | IC50 [3] [nM] | IC50 ([2]; Homo sapiens, JJN-3, 96 h) [nM] |
| --- | --- | --- | --- | --- | --- | --- |
| Cc1cnc(OCC2CCCN2C2CC2)c(Nc2nccc(-c3cc(C#N)c4c(c3)[C@@](C)(CO)CN4)n2)c1 (mixture of isomers) [Compound 175] | 19.5 | – | – | – | – | – |
| Cc1ncc(Nc2nccc(-c3cc(C#N)c4c(c3)[C@@](C)(CO)CN4)n2)c(OCC2CCCO2)n1 (single isomer, unassigned) [Compound 137] | 16.2 | 525 | > 10000 | 200 °C | – | – |
| Cc1ncc(Nc2nccc(-c3cc(C#N)c4c(c3)[C@@](C)(CO)CN4)n2)c(OCC2CCCO2)n1 (single isomer, unassigned) [Compound 138] | 29.5 | 1510 | – | – | > 10000 | – |
| COc1ncc(Cl)cc1Nc1nccc(-c2cc(C#N)c3c(c2)C(C)(CO)CN3)n1 (stereo not drawn) [Compound 3] | 8.3 | – | > 10000 | 254 °C | – | 81 |
| Cc1ncc(Cl)cc1Nc1nccc(-c2cc(C#N)c3c(c2)C(C)(CO)CN3)n1 (stereo not drawn) [Compound 4] | 3.6 | – | ~7410 | 277 °C and 280 °C | – | 97 |
| CC1(CO)CNc2c(C#N)cc(-c3ccnc(Nc4cc(Cl)cnc4Cl)n3)cc21 (stereo not drawn) [Compound 5] | ~8.51 | – | > 10000 | 261 °C | – | 170 |
| COc1ncccc1Nc1nccc(-c2cc(C#N)c3c(c2)[C@@](C)(CO)CN3)n1 [Compound 6] | 2.4 | – | > 10000 | 241 °C | – | ~245 |
| COc1ncccc1Nc1nccc(-c2cc(C#N)c3c(c2)[C@](C)(CO)CN3)n1 [Compound 7] | 15.5 | – | > 10000 | 245 °C | – | 1580 |
| CCOC(=O)c1ccc(Nc2nccc(-c3cc(C#N)c4c(c3)C(C)(CO)CN4)n2)cn1 (stereo not drawn) [Compound 9] | 5.3 | – | 427 | 238 °C | – | 219 |
| COCCNc1nc(OC)c(Nc2nccc(-c3cc(C#N)c4c(c3)[C@@](C)(CO)CN4)n2)cc1Cl [Compound 10] | 8.5 | – | > 10000 | 231 °C | – | 58 |
| COCCCn1cccc(Nc2nccc(-c3cc(C#N)c4c(c3)[C@@](C)(CO)CN4)n2)c1=O [Compound 10i] | 3 | – | 4790 | 192 °C | – | 339 |
| COCCNc1nc(OC)c(Nc2nccc(-c3cc(C#N)c4c(c3)[C@](C)(CO)CN4)n2)cc1Cl [Compound 11] | 10.5 | – | > 10000 | 236 °C | – | ~347 |
| COCCNc1ccc(Nc2nccc(-c3cc(C#N)c4c(c3)C(C)(CO)CN4)n2)c(OC)n1 (stereo not drawn) [Compound 12] | 12.9 | – | > 10000 | 120 °C | – | 589 |
| COCCNc1nc(OC(C)C)c(Nc2nccc(-c3cc(C#N)c4c(c3)C(C)(CO)CN4)n2)cc1Cl (stereo not drawn) [Compound 13] | 28.8 | – | > 10000 | 125 °C | – | 447 |
| COc1ncc(Cl)cc1Nc1nccc(-c2cc(C#N)c3c(c2)[C@@](C)(CO)CN3)n1 [Compound 14] | 5.5 | – | > 10000 | 266 °C | – | 372 |
| COCCn1cc(Cl)cc(Nc2nccc(-c3cc(C#N)c4c(c3)[C@@](C)(CO)CN4)n2)c1=O [Compound 14i] | 1.4 | – | > 10000 | – | – | 24 |
| CN1CCC(Oc2ncc(Cl)cc2Nc2nccc(-c3cc(C#N)c4c(c3)C(C)(CO)CN4)n2)CC1 (stereo not drawn) [Compound 15] | 2.9 | – | > 10000 | – | – | 24 |
| Cn1cc(Cl)cc(Nc2nccc(-c3cc(C#N)c4c(c3)C(C)(CO)CN4)n2)c1=O (stereo not drawn) [Compound 15i] | 3.6 | – | > 10000 | 295 °C | – | ~427 |
| CCOc1ncccc1Nc1nccc(-c2cc(C#N)c3c(c2)C(C)(CO)CN3)n1 (stereo not drawn) [Compound 16] | 3.8 | – | > 10000 | 248 °C | – | 245 |

| Structure (SMILES) | IC50 [1] [nM] | IC50 [2] [nM] | IC50 ([3]; Homo sapiens, KMS-12-BM, 96 h) [nM] | melting point | IC50 [3] [nM] | IC50 ([2]; Homo sapiens, JJN-3, 96 h) [nM] |
| --- | --- | --- | --- | --- | --- | --- |
| [2H]C([2H])([2H])Oc1ncccc1Nc1nccc(-c2cc(C#N)c3c(c2)C(C)(CO)CN3)n1 (stereo not drawn) [Compound 17] | 2.5 | – | > 10000 | 248 °C | – | 288 |
| CC(C)Oc1ncccc1Nc1nccc(-c2cc(C#N)c3c(c2)C(C)(CO)CN3)n1 (stereo not drawn) [Compound 18] | 9.1 | – | > 10000 | 140 °C | – | 776 |
| C[C@]1(CO)CNc2c(C#N)cc(-c3ccnc(Nc4cc(Cl)cnc4OC4CCOCC4)n3)cc21 [Compound 22] | 10.2 | – | > 10000 | – | – | 417 |
| CC1(CO)CNc2c(C#N)cc(-c3ccnc(Nc4ccc(N5CCNCC5)cn4)n3)cc21 (stereo not drawn) [Compound 32] | 6.5 | – | 437 | – | – | 89 |
| COCCOc1ncccc1Nc1nccc(-c2cc(C#N)c3c(c2)[C@@](C)(CO)CN3)n1 [Compound 33] | 4.2 | – | > 10000 | – | – | 298 |
| COc1nc(C(F)(F)F)ccc1Nc1nccc(-c2cc(C#N)c3c(c2)[C@@](C)(CO)CN3)n1 [Compound 54] | 39.8 | – | > 10000 | – | – | 4070 |
| COc1nnc(Cl)cc1Nc1nccc(-c2cc(C#N)c3c(c2)C(C)(CO)CN3)n1 (stereo not drawn) [Compound 124] | 3.8 | – | > 10000 | – | – | ~144 |
| COc1ncncc1Nc1nccc(-c2cc(C#N)c3c(c2)C(C)(CO)CN3)n1 (stereo not drawn) [Compound 130] | 4.6 | – | > 10000 | – | – | 468 |
| Cc1nc(C)c(Cl)c(Nc2nccc(-c3cc(C#N)c4c(c3)[C@@](C)(CO)CN4)n2)n1 [Compound 132] | 12.9 | – | > 10000 | – | – | 3310 |
| Cc1nc(Nc2nccc(-c3cc(C#N)c4c(c3)[C@@](C)(CO)CN4)n2)cc(N2CCN(CCO)CC2)n1 [Compound 133] | 22.9 | – | > 10000 | – | – | ~1950 |
| Cc1nc(Nc2nccc(-c3cc(C#N)c4c(c3)[C@@](C)(CO)CN4)n2)cc(N2CCOCC2)n1 [Compound 134] | 38.9 | – | > 10000 | – | – | > 10000 |
| COCCOc1nc(P(C)(C)=O)ncc1Nc1nccc(-c2cc(C#N)c3c(c2)[C@@](C)(CO)CN3)n1 [Compound 139] | 17.8 | – | > 10000 | – | – | ~10000 |
| Cc1ncc(Nc2nccc(-c3cc(C#N)c4c(c3)[C@@](C)(CO)CN4)n2)c(OCC2(C)COC2)n1 [Compound 142] | 15.1 | – | > 10000 | – | – | 6310 |
| COc1nc(C2=CCOCC2)ncc1Nc1nccc(-c2cc(C#N)c3c(c2)[C@@](C)(CO)CN3)n1 [Compound 143] | 7.8 | – | > 10000 | – | – | 347 |
| Cc1ncc(Nc2nccc(-c3cc(C#N)c4c(c3)[C@@](C)(CO)CN4)n2)c(OCC(=O)N(C)C)n1 [Compound 144] | 24 | – | > 10000 | – | – | > 10000 |
| COC[C@@]1(C)CNc2c(C#N)cc(-c3ccnc(Nc4cc(Cl)cnc4C)n3)cc21 [Compound 145] | 9.5 | 479 | – | – | 4790 | – |
| Cc1cnc(OCC2(C)COC2)c(Nc2nccc(-c3cc(C#N)c4c(c3)[C@@](C)(CO)CN4)n2)c1 [Compound 147] | 7.9 | – | – | > 260 °C | – | – |
| Cc1nccnc1Nc1nccc(-c2cc(C#N)c3c(c2)[C@@](C)(CO)CN3)n1 [Compound 163] | 34.7 | – | ~5010 | – | – | 3160 |
| Cc1cc(Nc2nccc(-c3cc(C#N)c4c(c3)[C@@](C)(CO)CN4)n2)c(C)nc1OC1CCN(C2CC2)CC1 [Compound 176] | 4.8 | – | – | – | – | – |

— patent US11001569B2, “6-membered heteroaromatic substituted cyanoindoline derivatives as NIK inhibitors” (Janssen Pharmaceutica NV, priority 2016, dated 2021)
